Test results reported in patent US9856252B2, “2-(hetero)aryl-benzimidazole and imidazopyridine derivatives as inhibitors of asparagime emethyl transferase” (Cancer Therapeutics CRC Pty Ltd, priority 2013, dated 2018).

What was measured:
[1] = tested on: histone H4 Arginine 3 dimethylation mark in TE11 cells; test: PRMT5 Biomarker Assay; type: cell-based; conditions: Homo sapiens, TE-11; TE11 cell line, 72 hours incubation, Di-Methyl Histone H4R3 ELISA corrected for total protein
Procedure: Compounds of the invention may be tested for potency to inhibit the histone H4 Arginine 3 dimethylation mark in the following assay:
The cell line TE11 was seeded at a density of 12,000 cells per well in 96 well tissue culture plates in DME medium and 10% foetal bovine serum, and allowed to adhere overnight under standard culture conditions (37° C., 5% CO2). […] The methylation level was determined using the EpiQuik™ Global Di-Methyl Histone H4R3 Quantification ELISA Kit (Epigentek, Farmingdale, N.Y.) as per the manufacturer's recommendations; in parallel the total protein amount in the lysate was quantified using a Lowry protein assay.

[2] = molecular target: Full-length PRMT5 enzyme (NCBI Reference sequence NP_006100.2) co-expressed with His6-MEP50 (Homo sapiens (Human), UniProt O14744); test: PRMT5 Biochemical Assay; conditions: histone H4 derived peptide substrate 200 nM, 1 μM S-Adenosyl methionine, 4 hours at 37° C., Transcreener EPIGEN fluorescence polarisation
Full-length PRMT5 enzyme (NCBI Reference sequence NP_006100.2) co-expressed with His6-MEP50, sequence (O14744 whole entry): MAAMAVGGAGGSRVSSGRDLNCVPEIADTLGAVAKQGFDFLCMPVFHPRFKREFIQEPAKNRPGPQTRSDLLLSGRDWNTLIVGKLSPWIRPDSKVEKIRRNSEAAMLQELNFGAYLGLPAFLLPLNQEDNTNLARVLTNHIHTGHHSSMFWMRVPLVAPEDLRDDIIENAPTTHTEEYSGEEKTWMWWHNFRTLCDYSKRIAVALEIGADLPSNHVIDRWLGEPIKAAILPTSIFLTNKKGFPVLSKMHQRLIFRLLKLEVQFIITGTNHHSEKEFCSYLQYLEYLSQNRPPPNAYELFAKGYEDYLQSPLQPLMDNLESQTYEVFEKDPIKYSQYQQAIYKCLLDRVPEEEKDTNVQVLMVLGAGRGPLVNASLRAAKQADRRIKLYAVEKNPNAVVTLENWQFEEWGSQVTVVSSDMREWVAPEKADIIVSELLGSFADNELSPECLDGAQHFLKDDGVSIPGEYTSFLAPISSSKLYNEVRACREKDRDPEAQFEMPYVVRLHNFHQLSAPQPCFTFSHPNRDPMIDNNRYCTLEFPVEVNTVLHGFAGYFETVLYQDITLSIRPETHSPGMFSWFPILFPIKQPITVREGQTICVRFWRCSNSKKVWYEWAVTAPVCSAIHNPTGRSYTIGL
Full-length PRMT5 enzyme (NCBI Reference sequence NP_006100.2) co-expressed with His6-MEP50, sequence (Q9BQA1 whole entry partner): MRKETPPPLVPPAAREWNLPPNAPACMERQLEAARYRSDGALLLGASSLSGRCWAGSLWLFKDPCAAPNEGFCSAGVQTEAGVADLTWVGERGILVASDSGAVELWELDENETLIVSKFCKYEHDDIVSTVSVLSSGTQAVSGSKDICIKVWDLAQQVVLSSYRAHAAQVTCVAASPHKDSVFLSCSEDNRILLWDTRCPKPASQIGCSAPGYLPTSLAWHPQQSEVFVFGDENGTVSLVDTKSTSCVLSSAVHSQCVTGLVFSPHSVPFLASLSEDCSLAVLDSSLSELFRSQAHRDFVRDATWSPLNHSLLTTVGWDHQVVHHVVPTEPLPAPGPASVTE
Procedure: Compounds of the invention may be tested for in vitro activity in the following assay: A histone H4 derived peptide is used as substrate (amino acid sequence: […]N H2). Full-length PRMT5 enzyme (NCBI Reference sequence NP_006100.2) was co-expressed with His6-MEP50 in insect cells and purified via Nickel immobilized metal affinity and gel filtration chromatography (“the enzyme”).
The 6 μL assay reactions are run in Greiner brand black 384-well low volume plates. All reactions contained assay buffer (phosphate buffered saline, 0.01% (v/v) Tween-20, 0.01% (w/v) albumin from chicken egg white, 1 mM dithiothreitol, 200 nM peptide substrate, 1 μM S-Adenosyl methionine, and 15 ng/reaction enzyme, with the enzyme being omitted from negative control reactions. Compounds were added in a volume of 100 nL from dilution series prepared in DMSO, positive and negative control reactions receiving the same volume DMSO without compound. The plates were sealed with adhesive seals and incubated for 4 hours at 37° C. Reaction progress was measured using the Transcreener™ EPIGEN methyltransferase assay (BellBrook Labs, Madison, Wis.) as recommended by the manufacturer. To each reaction 2 μL detection mix were added, containing coupling enzymes, fluorescence polarisation tracer, and AMP antibody. Plates were incubated for 90 minutes before being read on a PerkinElmer EnVision™ plate reader in fluorescence polarisation mode.

SMILES | IC50 [1] [nM] | IC50 [2] [nM]
Clc1ccnc2[nH]c(-c3ccc(OCc4ccccc4)cc3)nc12 [Example 4, 2-(4-(benzyloxy)phenyl)-7-chloro-3H-imidazo[4,5-b]pyridine] | 127 | 
c1ccc(OCc2ccc(-c3nc4cc(C5CCNCC5)cnc4[nH]3)cc2)cc1 [Example 9, 2-(4-(phenoxymethyl)phenyl)-6-(piperidin-4-yl)-3H-imidazo[4,5-b]pyridine] | 645 | 
c1ccc(OCc2ccc(-c3nc4cc(C5CCCNC5)cnc4[nH]3)cc2)cc1 (stereo not shown) [Example 16, 2-(4-(phenoxymethyl)phenyl)-6-(piperidin-3-yl)-3H-imidazo[4,5-b]pyridine] | 1830 | 107
C1=C(c2ccc3nc(-c4ccc(OCc5ccccc5)cc4)[nH]c3n2)CCNC1 [Example 45, 2-(4-(benzyloxy)phenyl)-5-(1,2,3,6-tetrahydropyridin-4-yl)-3H-imidazo[4,5-b]pyridine] | 1210 | 
CS(=O)(=O)N1CCC(c2cnc3[nH]c(-c4ccc(OCc5ccccc5)cc4)nc3c2)CC1 [Example 83, 2-(4-(benzyloxy)phenyl)-6-(1-(methylsulfonyl)piperidin-4-yl)-3H-imidazo[4,5-b]pyridine] |  | 1110
c1ccc(OCc2ccc(-c3nc4ccc(C5CCNCC5)nc4[nH]3)cc2)cc1 [Example 85, 2-(4-(phenoxymethyl)phenyl)-5-(piperidin-4-yl)-3H-imidazo[4,5-b]pyridine] |  | 151
CS(=O)(=O)N1CCC(c2ccc3nc(-c4ccc(OCc5ccccc5)cc4)[nH]c3n2)CC1 [Example 87, 2-(4-(benzyloxy)phenyl)-5-(1-(methylsulfonyl)piperidin-4-yl)-3H-imidazo[4,5-b]pyridine] |  | 355
CCOC(=O)N1CCC(c2ccc3nc(-c4ccc(OCc5ccccc5)cc4)[nH]c3n2)CC1 [Example 88, ethyl 4-(2-(4-(benzyloxy)phenyl)-3H-imidazo[4,5-b]pyridin-5-yl)piperidine-1-carboxylate] |  | 477
O=S(=O)(C1CC1)N1CCC(c2ccc3nc(-c4ccc(OCc5ccccc5)cc4)[nH]c3n2)CC1 [Example 89, 2-(4-(benzyloxy)phenyl)-5-(1-(cyclopropylsulfonyl)piperidin-4-yl)-3H-imidazo[4,5-b]pyridine] |  | 1340
CS(=O)(=O)N1CCN(c2ccc3nc(-c4ccc(OCc5ccccc5)cc4)[nH]c3n2)CC1 [Example 91, 2-(4-(benzyloxy)phenyl)-5-(4-(methylsulfonyl)piperazin-1-yl)-3H-imidazo[4,5-b]pyridine] |  | 820
O=S(=O)(C1CC1)N1CCN(c2ccc3nc(-c4ccc(OCc5ccccc5)cc4)[nH]c3n2)CC1 [Example 92, 2-(4-(benzyloxy)phenyl)-5-(4-(cyclopropylsulfonyl)piperazin-1-yl)-3H-imidazo[4,5-b]pyridine] |  | 279
CNC(=O)Cc1ccnc2[nH]c(-c3ccc(OCc4ccccc4)cc3)nc12 [Example 93, 2-(2-(4-(benzyloxy)phenyl)-3H-imidazo[4,5-b]pyridin-7-yl)-N-methylacetamide] |  | 2140
CCS(=O)(=O)N1CC=C(c2ccc3nc(-c4ccc(OCc5ccccc5)cc4)[nH]c3n2)CC1 [Example 97, 2-(4-(benzyloxy)phenyl)-5-(1-(ethylsulfonyl)-1,2,3,6-tetrahydropyridin-4-yl)-3H-imidazo[4,5-b]pyridine] |  | 217
c1ccc(COc2ccc(-c3nc4ccc(C5CC5)nc4[nH]3)cc2)cc1 [Example 105] |  | 1500
Cn1cc(-c2ccc3nc(-c4ccc(OCc5ccccc5)cc4)[nH]c3n2)cn1 [Example 107] |  | 1670

Further lines, results first:

IC50 [1] [nM] | IC50 [2] [nM] | SMILES
731 | 223 | c1ccc(COc2ccc(-c3nc4ccc(C5CCNCC5)nc4[nH]3)cc2)cc1 [Example 40, 2-(4-(benzyloxy)phenyl)-5-(piperidin-4-yl)-3H-imidazo[4,5-b]pyridine]
 | 151 | CN1CCC(c2ccc3nc(-c4ccc(COc5ccccc5)cc4)[nH]c3n2)CC1 [Example 86, 5-(1-methylpiperidin-4-yl)-2-(4-(phenoxymethyl)phenyl)-3H-imidazo[4,5-b]pyridine]
 | 148 | CCS(=O)(=O)N1CCC(c2ccc3nc(-c4ccc(OCc5ccccc5)cc4)[nH]c3n2)CC1 [Example 90, 2-(4-(benzyloxy)phenyl)-5-(1-(ethylsulfonyl)piperidin-4-yl)-3H-imidazo[4,5-b]pyridine]
 | 1020 | CN(C)C(=O)Cc1ccnc2[nH]c(-c3ccc(OCc4ccccc4)cc3)nc12 [Example 94, 2-(2-(4-(benzyloxy)phenyl)-3H-imidazo[4,5-b]pyridin-7-yl)-N,N-dimethylacetamide]
 | 585 | c1ccc(CSc2ccc(-c3nc4ccc(N5CCNCC5)nc4[nH]3)cc2)cc1 [Example 96, 2-(4-(benzylthio)phenyl)-5-(piperazin-1-yl)-3H-imidazo[4,5-b]pyridine]
 | 166 | CC(=O)N1CC=C(c2ccc3nc(-c4ccc(OCc5ccccc5)cc4)[nH]c3n2)CC1 [Example 98, 1-(4-(2-(4-(benzyloxy)phenyl)-3H-imidazo[4,5-b]pyridin-5-yl)-3,6-dihydropyridin-1 (2H)-yl)ethan-1-one]
 | 148 | CN1CCCC(c2ccc3nc(-c4ccc(COc5ccccc5)cc4)[nH]c3n2)C1 (stereo not shown) [Example 99, 5-(1-methylpiperidin-3-yl)-2-(4-(phenoxymethyl)phenyl)-3H-imidazo[4,5-b]pyridine]
 | 9000 | c1ccc(COc2ccc(-c3nc4ccc(-c5cncnc5)nc4[nH]3)cc2)cc1 [Example 106]
